Experimental data taken from BindingDB's records for patent US20250115583 (Corcept Therapeutics, 2025).

Target: T1, Glucocorticoid receptor (Homo sapiens, UniProt P04150)
T1 sequence (P04150 whole entry): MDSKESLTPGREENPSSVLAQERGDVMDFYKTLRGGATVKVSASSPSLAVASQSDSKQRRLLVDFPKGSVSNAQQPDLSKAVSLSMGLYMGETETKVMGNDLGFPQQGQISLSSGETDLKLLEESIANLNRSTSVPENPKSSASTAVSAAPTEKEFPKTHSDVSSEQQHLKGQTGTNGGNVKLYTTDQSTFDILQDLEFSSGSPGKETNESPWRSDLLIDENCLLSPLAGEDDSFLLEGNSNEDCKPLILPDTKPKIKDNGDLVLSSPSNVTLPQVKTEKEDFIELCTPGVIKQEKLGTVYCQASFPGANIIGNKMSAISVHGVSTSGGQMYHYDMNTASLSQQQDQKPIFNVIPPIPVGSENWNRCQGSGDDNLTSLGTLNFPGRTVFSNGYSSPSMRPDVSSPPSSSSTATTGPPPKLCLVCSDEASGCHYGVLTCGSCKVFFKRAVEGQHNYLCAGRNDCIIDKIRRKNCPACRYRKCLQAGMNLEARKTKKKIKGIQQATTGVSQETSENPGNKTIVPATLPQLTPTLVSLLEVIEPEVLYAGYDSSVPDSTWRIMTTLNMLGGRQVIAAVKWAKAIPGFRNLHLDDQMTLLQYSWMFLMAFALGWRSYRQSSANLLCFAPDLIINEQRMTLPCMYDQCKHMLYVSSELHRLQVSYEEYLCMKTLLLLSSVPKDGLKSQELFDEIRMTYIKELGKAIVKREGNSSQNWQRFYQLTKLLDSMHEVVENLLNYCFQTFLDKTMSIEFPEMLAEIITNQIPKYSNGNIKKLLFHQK
Experiment: GR Binding Assay
Description: Binding of test compounds to the glucocorticoid receptor (GR) is determined using a fluorescence polarisation (FP) assay utilising a recombinant ligand binding domain (LBD) of GR. The test compounds are assessed by their ability to displace a fluorescently tagged ligand and detection of the resulting decrease in fluorescence polarisation.

Ki [nM]	Structure (SMILES)
360	Cc1cc2c(cnn2-c2ccc(F)cc2)cc1[C@@]12CN(S(=O)(=O)c3cnn(C)n3)C[C@@H]1[C@H]2C(=O)N1CCC1 [US20250115583, Example 59]
19	Cc1cc2c(cnn2-c2ccc(F)cc2)cc1[C@@]12CN(C(=O)c3nn(C)cc3Cl)C[C@@H]1[C@H]2c1ccccc1 [US20250115583, Example 178]
